Assay results from US20070219180A1, “Muscle Relaxtion Accelerator and Therapeutic Agent for Muscular Tissue Diseases Such as Muscle Relaxation Failure” (priority 2004, published 2007).

System: male Wistar rats
Assay: Experiment 11: protective effect on diastolic dysfunction of the myocardium (compound given before norepinephrine)
Type: in vivo, rat
Experimental: This experiment was performed to examine the protective effect of the compound on left ventricular diastolic dysfunction, and the compound was administered 5 minutes before administration of the norepinephrine solution referred to in Experiment 1, in which a calcium solution and a norepinephrine solution were administered after calcium administration for 20 minutes.
In this experiment, the 1,4-benzothiazepine derivative or pharmaceutically acceptable salt thereof was used as the compound.
Eight-week old male Wistar rats weighing 310-320 g were used in the study. The rats were anesthetized with 1,000 mg/kg of urethane and 80 mg/kg of α-chloralose by subperitoneal injection under artificial respiration (SN-480-7, Shinano) using endotracheal intubation. In this experiment, 100 mg of the compound was dissolved in 1 ml of dimethylsulfoxide (DMSO) and the resulting DMSO solution of the compound was stored at 4° C. Norepinephrine solution was prepared by dissolving 1 mg of norepinephrine in 41 μl of distilled water, at an infusion speed of […].
Firstly, continuous infusion catheters of calcium chloride solution or norepinephrine solution containing calcium chloride were inserted into the right external jugular veins of the rats, microchip catheters (SPC-320, Millar) was inserted into the left ventricles via the right common arteries, and the left ventricular end-diastolic pressure was measured. In addition, test drug infusion catheters were inserted into the right femoral veins.
A 1-lead electrocardiogram and the left ventricular pressure were recorded simultaneously on a personal computer via an A/D converter. The left ventricular diastolic pressure was determined as the mean of data measured over 20 heart beats every 5 minutes, when the pressure equivalent to the R wave of the electrocardiogram was defined as the left ventricular diastolic pressure. In the preparation step, blood pressure, pulse, and electrocardiogram of the rats were monitored for 15 minutes and allowed to stabilize, and then 5% dextrose solution containing calcium chloride (at a concentration based on the weight of the rat) was infused into the right external jugular vein for 20 minutes at 16.6 μl/min (12.0 mg/kg/min of calcium chloride).
Secondly, a norepinephrine solution containing calcium chloride without a change in dosage was immediately injected at a rate of 30 μg/kg/min via the right external jugular vein. After the start of administration, calcium chloride and norepinephrine were then continuously injected in the form of a norepinephrine solution containing calcium chloride. With continuous injection of calcium chloride and norepinephrine (in the form of a norepinephrine solution containing calcium chloride) via the right external jugular vein, 0.2 ml of 1% DMSO solution of the solvent used for the test compound was administered over 30 seconds to a rat (weight: 310 g, Control; this animal was not administered the compound) via the right femoral vein, 5 minutes before commencement of injection (intravenous injection) of calcium chloride and norepinephrine (in the form of a norepinephrine solution containing calcium chloride) via the right external jugular vein.
Similarly to the Control, with continuous injection of calcium chloride and norepinephrine (in the form of a norepinephrine solution containing calcium chloride) via the right external jugular vein, 0.2 ml of a 1% DMSO solution containing 0.3 mg/kg of the compound was administered over 30 seconds to a rat (weight: 320 g, defined as Test 14) via the right femoral vein, 5 minutes before commencement of injection (intravenous injection) via the right external jugular vein of calcium chloride and norepinephrine. Furthermore, in this experiment, after the test drug was injected over 30 seconds, a 1:10 dilution of the injected test drug was additionally administered at 10 μl/min from commencement of test drug injection to 15 minutes after the start of administration. […]

In the case of `COc1ccc2c(c1)CN(C(=O)CCN1CCC(Cc3ccccc3)CC1)CCS2` [the compound, 4-[3-(4-benzylpiperidine-1-yl)propionyl]-7-methoxy-2,3,4,5-tetrahydro-1,4-benzothiazepine], the “left ventricular end-diastolic pressure” value (Test 14: 0.3 mg/kg i.v. over 30 s 5 min before norepinephrine, then 0.02 mg/kg/min, 25 minutes before (5 minutes before the start of CaCl2), baseline) is reported as 7.2 mmHg, the “left ventricular end-diastolic pressure” value (Test 14: 0.3 mg/kg i.v. over 30 s then 0.02 mg/kg/min, 5 minutes after the start of test drug (just before the start of norepinephrine)) is reported as 8.0 mmHg and the “left ventricular end-diastolic pressure” value (Test 14: 0.3 mg/kg i.v. over 30 s then 0.02 mg/kg/min, 10 minutes after the start of test drug (5 minutes after the start of norepinephrine 30 μg/kg/min)) is reported as 14.5 mmHg. The “left ventricular end-diastolic pressure” value (Test 14: 0.3 mg/kg i.v. over 30 s then 0.02 mg/kg/min, 10 minutes before (10 minutes after the start of CaCl2), baseline) was 7.9 mmHg, the “left ventricular end-diastolic pressure” value (Test 14: 0.3 mg/kg i.v. over 30 s then 0.02 mg/kg/min, 15 minutes after the start of test drug (10 minutes after the start of norepinephrine 30 μg/kg/min)) was 18.3 mmHg and the “left ventricular end-diastolic pressure” value (Test 14: 0.3 mg/kg i.v. over 30 s then 0.02 mg/kg/min, 20 minutes before (just after the start of CaCl2), baseline) was 7.7 mmHg. For the same compound, the “left ventricular end-diastolic pressure” value (Test 14: 0.3 mg/kg i.v. over 30 s then 0.02 mg/kg/min, just before test drug (20 minutes after the start of CaCl2), baseline) was 8.1 mmHg.
